In patent US12528801B2 (Givaudan SA, priority 2019, dated 2026):

Molecular target: T1, hTRPM8 (Homo sapiens, UniProt Q7Z2W7)
T1 construct: expressed in transfected cells
Test: Assay on TRPM8 modulators: calcium imaging (Fluo-4, Flexstation) in HEK293 cell line stably expressing hTRPM8
Assay type: cell-based
Conditions: HEK293 cells stably expressing hTRPM8; calcium influx, Fluo-4, Flexstation 3; sigmoidal dose-response fit
Outline: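 HEK293 cells stably expressing hTRPM8 were loaded with Fluo-4 AM plus probenecid and kept in HEPES buffer, pH 7.4. Calcium influx to serially diluted compounds was recorded for 120 s. Maximal activation was referenced to solvent control and 31.6 μM menthol, with EC values from sigmoidal dose-response fits.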

T1 sequence (Q7Z2W7 whole entry): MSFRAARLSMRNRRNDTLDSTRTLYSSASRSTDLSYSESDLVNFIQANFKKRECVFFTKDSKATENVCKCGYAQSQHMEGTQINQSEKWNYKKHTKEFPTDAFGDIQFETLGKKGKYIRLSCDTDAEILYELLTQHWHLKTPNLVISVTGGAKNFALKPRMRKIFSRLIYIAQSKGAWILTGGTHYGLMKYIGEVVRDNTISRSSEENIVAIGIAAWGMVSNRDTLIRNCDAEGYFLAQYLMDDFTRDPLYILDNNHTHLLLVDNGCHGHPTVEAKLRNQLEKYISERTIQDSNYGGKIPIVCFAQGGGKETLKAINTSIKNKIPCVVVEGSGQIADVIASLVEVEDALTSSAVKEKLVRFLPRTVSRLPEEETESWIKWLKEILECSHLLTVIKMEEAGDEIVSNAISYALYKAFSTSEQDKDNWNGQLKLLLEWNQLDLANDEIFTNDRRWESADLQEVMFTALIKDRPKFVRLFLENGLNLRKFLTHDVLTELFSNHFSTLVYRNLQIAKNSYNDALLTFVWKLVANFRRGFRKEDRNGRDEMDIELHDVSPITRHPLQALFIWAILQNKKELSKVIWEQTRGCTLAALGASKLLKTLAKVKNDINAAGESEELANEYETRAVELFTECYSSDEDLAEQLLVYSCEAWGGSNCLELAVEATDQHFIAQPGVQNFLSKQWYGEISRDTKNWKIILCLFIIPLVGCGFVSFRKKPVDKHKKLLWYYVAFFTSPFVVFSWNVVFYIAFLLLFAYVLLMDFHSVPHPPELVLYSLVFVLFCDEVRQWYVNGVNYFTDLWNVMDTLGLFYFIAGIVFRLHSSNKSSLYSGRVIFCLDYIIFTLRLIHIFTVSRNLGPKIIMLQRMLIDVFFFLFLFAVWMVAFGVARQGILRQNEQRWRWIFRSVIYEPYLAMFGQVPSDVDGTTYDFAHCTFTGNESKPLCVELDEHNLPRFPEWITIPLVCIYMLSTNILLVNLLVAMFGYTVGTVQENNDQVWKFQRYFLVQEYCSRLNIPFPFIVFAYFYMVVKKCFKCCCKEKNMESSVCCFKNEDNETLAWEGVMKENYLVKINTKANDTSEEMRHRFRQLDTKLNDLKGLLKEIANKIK

SMILES | EC50
CSC(C)C(=O)N1CCCCC1c1ncc(-c2cccc([N+](=O)[O-])c2)[nH]1 (centres unmarked) [Compound 190, 2-(methylthio)-1-(2-(5-(3-nitrophenyl)-1H-imidazol-2-yl)piperidin-1-yl)propan-1-one] | < 50 nM
CSC(C)C(=O)N1CCCCC1c1nnn(-c2ccc(C)cc2)n1 (centres unmarked) [Compound 104, 2-(methylthio)-1-(2-(2-(p-toly)-2H-tetrazol-5-yl)piperidin-1-yl)propan-1-one] | < 50 nM
Cc1ccc(-c2cnc(C3CCCCN3C(=O)C(C)N)[nH]2)cc1 (centres unmarked) [Compound 147, 2-amino-1-(2-(5-(p-toly)-1H-imidazol-2-yl)piperidin-1-yl)propan-1-one] | 1000 to 35000 nM
CCC(C)(C)C(=O)N1CCCCC1c1ncc(-c2ccc(C)cc2)[nH]1 (centres unmarked) [Compound 143, 2,2-dimethyl-1-(2-(5-(p-tolyl)-1H-imidazol-2-yl)piperidin-1-yl)butan-1-one] | < 50 nM
CSC(C)C(=O)N1CCCCC1c1ncc(Br)[nH]1 (centres unmarked) [Compound 88, 1-(2-(5-bromo-1H-imidazol-2-yl)piperidin-1-yl)-2-(methylthio)propan-1-one] | 300 to 1000 nM
CCC(C)C(=O)N1CCCCC1c1ncc(-c2ccc(Cl)cc2)[nH]1 (centres unmarked) [Compound 195, 1-(2-(5-(4-chlorophenyl)-1H-imidazol-2-yl)piperidin-1-yl)-2-methylbutan-1-one] | < 50 nM
CSC(C)C(=O)N1CCCCC1c1ncc(-c2ccc(F)c(F)c2F)[nH]1 (centres unmarked) [Compound 120, 2-(methylthio)-1-(2-(5-(2,3,4-trifluorophenyl)-1H-imidazol-2-yl)piperidin-1-yl)propan-1-one] | < 50 nM
CC(C)CC(=O)N1CCCCC1c1nc(-c2ccccc2)c[nH]1 (centres unmarked) [Compound 180, 3-methyl-1-(2-(4-phenyl-1H-imidazol-2-yl)piperidin-1-yl)butan-1-one] | 1000 to 35000 nM
COc1ncc(-c2cnc(C3CCCCN3C(=O)C(C)SC)[nH]2)cn1 (centres unmarked) [Compound 58, 1-(2-(5-(2-methoxypyrimidin-5-yl)-1H-imidazol-2-yl)piperidin-1-yl)-2-(methylthio)propan-1-one] | 300 to 1000 nM
CSC(C)C(=O)N1CCCCC1c1ncc(-c2ccc(CN)cc2)[nH]1 (centres unmarked) [Compound 71, 1-(2-(5-(4-(aminomethyl)phenyl)-1H-imidazol-2-yl)piperidin-1-yl)-2-(methylthio)propan-1-one] | < 50 nM
COc1nscc1-c1cnc(C2CCCCN2C(=O)C(C)SC)[nH]1 (centres unmarked) [Compound 67, 1-(2-(5-(3-methoxyisothiazol-4-yl)-1H-imidazol-2-yl)piperidin-1-yl)-2-(methylthio)propan-1-one] | 1000 to 35000 nM
Cc1ccc(-c2cnc(C3CCCCN3C(=O)C(C)C(C)C)[nH]2)cc1 (centres unmarked) [Compound 199, 2,3-dimethyl-1-(2-(5-(p-tolyl)-1H-imidazol-2-yl)piperidin-1-yl)butan-1-one] | < 50 nM
CCC(C)S(=O)(=O)N1CCCCC1c1ncc(-c2ccc(C)cc2)[nH]1 (centres unmarked) [Compound 204, 1-(sec-butylsulfonyl)-2-(5-(p-tolyl)-1H-imidazol-2-yl)piperidine] | 1000 to 35000 nM
CC(C(=O)N1CCCCC1c1nc(-c2ccccc2)c[nH]1)C1CCC1 (centres unmarked) [Compound 148, 2-cyclobutyl-1-(2-(4-phenyl-1H-imidazol-2-yl)piperidin-1-yl)propan-1-one] | 50 to 300 nM
O=C(C1CC1)N1CCCCC1c1nc(-c2ccccc2)c[nH]1 (centres unmarked) [Compound 187, cyclopropyl(2-(4-phenyl-1H-imidazol-2-yl)piperidin-1-yl)methanone] | 1000 to 35000 nM
COC(C(=O)N1CCCCC1c1nc(-c2ccccc2)c[nH]1)C1CC1 (centres unmarked) [Compound 152, 2-cyclopropyl-2-methoxy-1-(2-(4-phenyl-1H-imidazol-2-yl)piperidin-1-yl)ethan-1-one] | 300 to 1000 nM
C=CCCC(=O)N1CCCCC1c1nc(-c2ccccc2)c[nH]1 (centres unmarked) [Compound 51, 1-(2-(4-phenyl-1H-imidazol-2-yl)piperidin-1-yl)pent-4-en-1-one] | 300 to 1000 nM
CC1(C)CC1C(=O)N1CCCCC1c1nc(-c2ccccc2)c[nH]1 (centres unmarked) [Compound 3, (2,2-dimethylcyclopropyl)(2-(4-phenyl-1H-imidazol-2-yl)piperidin-1-yl)methanone] | < 50 nM
C=Cc1ccc(-c2cnc(C3CCCCN3C(=O)C(C)SC)[nH]2)cc1 (centres unmarked) [Compound 126, 2-(methylthio)-1-(2-(5-(4-vinylphenyl)-1H-imidazol-2-yl)piperidin-1-yl)propan-1-one] | < 50 nM
CCC(OC)C(=O)N1CCCCC1c1nc(-c2ccccc2)c[nH]1 (centres unmarked) [Compound 158, 2-methoxy-1-(2-(4-phenyl-1H-imidazol-2-yl)piperidin-1-yl)butan-1-one] | 300 to 1000 nM
Cc1ccc(-c2cnc(C3CCCCN3C(=O)C(C)[S+](C)[O-])[nH]2)cc1 (centres unmarked) [Compound 101, 2-(methylsulfinyl)-1-(2-(5-(p-tolyl)-1H-imidazol-2-yl)piperidin-1-yl)propan-1-one] | 50 to 300 nM

Further lines, results first:

EC50 | SMILES
< 50 nM | CSC(C)C(=O)N1CCCCC1c1nc(-c2ccc(C)nc2)c[nH]1 (centres unmarked) [Compound 45, 1-(2-(4-(6-methylpyridin-3-yl)-1H-imidazol-2-yl)piperidin-1-yl)-2-(methylthio)propan-1-one]
< 50 nM | CSC(C)C(=O)N1CCCCC1c1ncc(-c2ccc(C)cc2F)[nH]1 (centres unmarked) [Compound 57, 1-(2-(5-(2-fluoro-4-methylphenyl)-1H-imidazol-2-yl)piperidin-1-yl)-2-(methylthio)propan-1-one]
50 to 300 nM | CSC(C)C(=O)N1CCCCC1c1nc(-c2cccc(C#N)c2)c[nH]1 (centres unmarked) [Compound 174, 3-(2-(1-(2-(methylthio)propanoyl)piperidin-2-yl)-1H-imidazol-4-yl)benzonitrile]
50 to 300 nM | CSC(C)C(=O)N1CCCCC1c1nc(-c2ccc(C(C)O)cc2)c[nH]1 (centres unmarked) [Compound 31, 1-(2-(4-(4-(1-hydroxyethyl)phenyl)-1H-imidazol-2-yl)piperidin-1-yl)-2-(methylthio)propan-1-one]
< 50 nM | CSC(C)C(=O)N1CCCCC1c1nc(-c2ccc(C(C)C)cc2)c[nH]1 (centres unmarked) [Compound 40, 1-(2-(4-(4-isopropylphenyl)-1H-imidazol-2-yl)piperidin-1-yl)-2-(methylthio)propan-1-one]
300 to 1000 nM | C[C@H](C(=O)N1CCCCC1c1nc(-c2ccccc2)c[nH]1)N(C)C (stereo partly drawn) [Compound 94, (2R)-2-(dimethylamino)-1-(2-(4-phenyl-1H-imidazol-2-yl)piperidin-1-yl)propan-1-one]
< 50 nM | CSC(C)C(=O)N1CCCCC1c1nc(-c2ccc(C3CC3)cc2F)c[nH]1 (centres unmarked) [Compound 37, 1-(2-(4-(4-cyclopropyl-2-fluorophenyl)-1H-imidazol-2-yl)piperidin-1-yl)-2-(methylthio)propan-1-one]
1000 to 35000 nM | CSC(C)C(=O)N1CCCCC1c1nc(-c2cncnc2)c[nH]1 (centres unmarked) [Compound 115, 2-(methylthio)-1-(2-(4-(pyrimidin-5-yl)-1H-imidazol-2-yl)piperidin-1-yl)propan-1-one]
1000 to 35000 nM | CSC(C)C(=O)N1CCCCC1c1nc(-c2c(C)noc2C)c[nH]1 (centres unmarked) [Compound 27, 1-(2-(4-(3,5-dimethylisoxazol-4-yl)-1H-imidazol-2-yl)piperidin-1-yl)-2-(methylthio)propan-1-one]
300 to 1000 nM | CSCC(C)C(=O)N1CCCCC1c1nc(-c2ccccc2)c[nH]1 (centres unmarked) [Compound 172]
< 50 nM | CSC(C)C(=O)N1CCCCC1c1nc(-c2ccc3c(c2)CCO3)c[nH]1 (centres unmarked) [Compound 18, 1-(2-(4-(2,3-dihydrobenzofuran-5-yl)-1H-imidazol-2-yl)piperidin-1-yl)-2-(methylthio)propan-1-one]
< 50 nM | CSC(C)C(=O)N1CCCCC1c1nc(-c2ccc(O)cc2)c[nH]1 (centres unmarked) [Compound 39, 1-(2-(4-(4-hydroxyphenyl)-1H-imidazol-2-yl)piperidin-1-yl)-2-(methylthio)propan-1-one]
50 to 300 nM | CSC(C)C(=O)N1CCCCC1c1nc(-c2cccc(C)c2)c[nH]1 (centres unmarked) [Compound 111, 2-(methylthio)-1-(2-(4-(m-tolyl)-1H-imidazol-2-yl)piperidin-1-yl)propan-1-one]
300 to 1000 nM | CSC(C)C(=O)N1CCCCC1c1nc(-c2cc(C)ccc2C)c[nH]1 (centres unmarked) [Compound 20, 1-(2-(4-(2,5-dimethylphenyl)-1H-imidazol-2-yl)piperidin-1-yl)-2-(methylthio)propan-1-one]
50 to 300 nM | COCc1ccc(-c2cnc(C3CCCCN3C(=O)C(C)SC)[nH]2)cc1F (centres unmarked) [Compound 64, 1-(2-(5-(3-fluoro-4-(methoxymethyl)phenyl)-1H-imidazol-2-yl)piperidin-1-yl)-2-(methylthio)propan-1-one]
50 to 300 nM | CSC(C)C(=O)N1CCCCC1c1nc(-c2ccc(C)c(C(F)(F)F)c2)c[nH]1 (centres unmarked) [Compound 41, 1-(2-(4-(4-methyl-3-(trifluoromethyl)phenyl)-1H-imidazol-2-yl)piperidin-1-yl)-2-(methylthio)propan-1-one]
50 to 300 nM | CSC(C)C(=O)N1CCCCC1c1cc(-c2ccc(C)cc2)on1 (centres unmarked) [Compound 132, 2-(methylthio)-1-(2-(5-(p-toly)isoxazol-3-yl)piperidin-1-yl)propan-1-one]
1000 to 35000 nM | CSC(C)C(=O)N1CCCCC1c1nc(-c2ccc(CN3CCS(=O)(=O)CC3)cc2)c[nH]1 (centres unmarked) [Compound 30, 1-(2-(4-(4-((1,1-dioxidothiomorpholino)methyl)phenyl)-1H-imidazol-2-yl)piperidin-1-yl)-2-(methylthio)propan-1-one]
50 to 300 nM | CSC(C)C(=O)N1CCCCC1c1nc(-c2cnc(C3CC3)o2)c[nH]1 (centres unmarked) [Compound 22, 1-(2-(4-(2-cyclopropyloxazol-5-yl)-1H-imidazol-2-yl)piperidin-1-yl)-2-(methylthio)propan-1-one]
< 50 nM | CSC(C)C(=O)N1CCCCC1c1ncc(-c2ccc3c(c2)OCO3)[nH]1 (centres unmarked) [Compound 85, 1-(2-(5-(benzo[d][1,3]dioxol-5-yl)-1H-imidazol-2-yl)piperidin-1-yl)-2-(methylthio)propan-1-one]
